Like-named read-outs stand apart in the source and are kept apart here.
Assay: Suramin plasma pharmacokinetics by LC-MS/MS, two compartment population PK model, pediatric patients
Type: in vivo, human
Details: for concentration at 1 h: read-out: 1-Hour Plasma Conc; for concentration at 45 days: read-out: 45-Day Plasma Conc; for concentration at 2 days: read-out: 2-Day Plasma Conc
Protocol: For the test dose, 50 mg of suramin hexasodium (Bayer Pharmaceuticals, Inc.) in 5 mL of saline (experimental arm, 5 patients), or 5 mL of saline only (control arm, 5 patients) were given by slow intravenous (IV) push over 3 minutes, followed by a 10 mL flush of saline. One hour after the test dose, vital signs were repeated and a single infusion of either suramin (20 mg/kg, minus the 50 mg test dose, in 50 mL, up to a maximum of 1 gram) or saline (50 mL IV) was given over 30 minutes, followed by a 10 mL flush of saline.
Suramin pharmacokinetics was assessed by serum isolation at the 4 time points immediately before and after the infusion. […] Unexpected and adverse events were recorded as they occurred and graded in severity according to the National Cancer Institute Common Terminology Criteria for Adverse Events v4.03 (CTCAE) scale. Additional pharmacovigilence monitoring included daily scripted phone calls in the first week, then 4 weekly calls until the exit examinations at 6 weeks.
Heparinized plasma, 90 μl was prepared for LC-MS/MS analysis. Ten (10) μl of 50 μM stock of trypan blue was added to achieve an internal standard concentration of 5μM. This was incubated at room temperature for 10 min to permit metabolite interaction with binding proteins, then extracted with 4 volumes (400 μl) of pre-chilled methanol-acetonitrile (50:50) to produce a final concentration of 40:40:20 (methanol:acetonitrile:H2O), and precipitated on ice for 10 minutes. The samples were deproteinated and macromolecules removed by precipitation on crushed ice for 10 min.
The mixture was centrifuged at 16,000g for 10 min at 4° C. and the supernatant was transferred to a new tube and kept at −80° C. for further LC-MS/MS analysis.
Suramin was detected in the prepared samples on an AB SCIEX QTRAP 5500 triple quadrupole mass spectrometer equipped with a Turbo V electrospray ionization (ESI) source, Shimadzu LC-20A UHPLC system, and a PAL CTC autosampler. […] The mobile phase A was water with 20 mM ammonium acetate (NH4OAC) (pH 7) and mobile phase B was methanol with 20 mM NH4OAC (pH 7). […] The flow rate was 400 μl/min. All the samples were kept at 4° C. during analysis. Suramin and trypan blue were detected using MRM scanning mode with the dwell time of 180 ms. […] Absolute concentrations of suramin were determined using a standard curve prepared in plasma to account for matrix effects, and the peak area ratio of suramin to the internal standard trypan blue. […] The ESI source parameters were set as follows: source temperature 500° C.; curtain gas 30; ion source gas 1, 35; ion source gas 2 35; spray voltage −4500 V. Analyst v1.6 was used for data acquisition and analysis.
The small number of PK samples per subject prevented a standard, non-compartmental analysis in individual subjects. The suramin drug concentrations were analyzed using a population PK approach with post-hoc empiric Bayesian estimate of PK parameters in individual subjects. The PK data were fit to a two compartment model using the computer program NONMEM (ICON, Dublin, Ireland). PK parameters were scaled allometrically with volume terms scaled to linear body weight (kg1.0) and clearance terms scaled to weight (kg0.75). Scaled adult suramin parameters of compartmental volumes of distribution and clearance were used as initial parameter estimates and between subject variability only estimated for clearance (CL) and the peripheral volume of distribution (Vd).

[1] = human, plasma, iv, 20 mg/kg, Mean of 5 subjects, 20 mg/kg (558 mg/m^2) IV
[2] = human, plasma, iv, 460 mg, ID 007, 460 mg (529 mg/m^2) IV
[3] = human, plasma, iv, 460 mg, ID 012, 460 mg (529 mg/m^2) IV
[4] = human, plasma, iv, 500 mg, ID 005, 500 mg (526 mg/m^2) IV
[5] = human, plasma, iv, 680 mg, ID 001, 680 mg (591 mg/m^2) IV
[6] = human, plasma, iv, 1000 mg, ID 014, 1000 mg (613 mg/m^2) IV
[7] = human, plasma, Mean of 5 subjects, 20 mg/kg (558 mg/m^2) IV

In the case of `Cc1ccc(C(=O)Nc2ccc(S(=O)(=O)O)c3cc(S(=O)(=O)O)cc(S(=O)(=O)O)c23)cc1NC(=O)c1cccc(NC(=O)Nc2cccc(C(=O)Nc3cc(C(=O)Nc4ccc(S(=O)(=O)O)c5cc(S(=O)(=O)O)cc(S(=O)(=O)O)c45)ccc3C)c2)c1` [Suramin, suramin], the clearance (20 mg/kg IV) is reported as 0.056±0.011 L/hr/m2, the “steady-state volume of distribution” value (20 mg/kg IV) is reported as 22.7±2.6 L/m2 and the suramin levels (before Day 2, all subjects) is reported as “below 100 μM”. The plasma concentrations maintained (between 2 days and 5-6 weeks following the dose) was 1.5 to 15 µM, the half-life (human, plasma, iv, 20 mg/kg, 20 mg/kg IV, read-out: alpha (distribution) phase half-life (converted)) was 0.308 ± 0.0229 days and the concentration at 1 h [1] was 104 µM. For the same molecule, the concentration at 45 days [1] was 1.54 µM, the half-life (human, plasma, iv, 20 mg/kg, Mean of 5 subjects, 20 mg/kg (558 mg/m^2) IV, read-out: Plasma Half-Life (terminal elimination phase half-life) (converted)) was 14.7 days and the concentration at 1 h [2] was 87.9 µM. It also gave a concentration at 2 days [2] of 11.9 µM, a concentration at 45 days [2] of 1.67 µM and a concentration at 1 h [3] of 119 µM. It also gave a concentration at 2 days [3] of 13.8 µM, a concentration at 45 days [3] of 2.28 µM and a half-life (human, plasma, iv, 460 mg, ID 012, 460 mg (529 mg/m^2) IV, read-out: Plasma Half-Life (converted)) of 16.5 days. The concentration at 1 h [4] was 102 µM, the concentration at 2 days [4] was 10.6 µM and the concentration at 45 days [4] was 1.76 µM. The half-life (human, plasma, iv, 500 mg, ID 005, 500 mg (526 mg/m^2) IV, read-out: Plasma Half-Life (converted)) was 15 days, the concentration at 1 h [5] was 101 µM and the concentration at 2 days [5] was 13.2 µM. For the same molecule, the concentration at 45 days [5] was 0.96 µM, the half-life (human, plasma, iv, 680 mg, ID 001, 680 mg (591 mg/m^2) IV, read-out: Plasma Half-Life (converted)) was 12.6 days and the concentration at 1 h [6] was 111 µM. It also gave a concentration at 2 days [6] of 10.6 µM, a concentration at 45 days [6] of 1.04 µM and a half-life (human, plasma, iv, 1000 mg, ID 014, 1000 mg (613 mg/m^2) IV, read-out: Plasma Half-Life (converted)) of 14.9 days. For the same molecule, the clearance (human, plasma, 20 mg/kg IV, read-out: clearance (converted)) was 1.95 mL/h/kg, the Vd (human, plasma, 20 mg/kg IV, read-out: steady-state volume of distribution) was 0.83 ± 0.014 L/kg and the concentration at 1 h [7] was 104 ± 11.6 µM. It also gave a concentration at 2 days [7] of 12 ± 1.5 µM.

— patent publication US20190358181A1, “METHODS FOR AUTISM SPECTRUM DISORDER PHARMACOTHERAPY” (priority 2017, published 2019)
